Test results published in patent US20260028354A1, “TETRAHYDRONAPHTHALENE DERIVATIVES AS ESTROGEN RECEPTOR DEGRADERS” (REGENT OF THE UNIVERSITY OF MICHIGAN, priority 2022, published 2026).
Like-named read-outs stand apart in the source and are kept apart here.

Assays:
ER in MCF-7 cells = ER in MCF-7 cells (Homo sapiens (Human), UniProt P03372); assay: In-cell Western (ICW) ER degradation assay in MCF-7 cells; format: cell-based; conditions: for DC50: MCF-7, ER degradation, read-out: MCF7 DC50
Excerpt: (§1) In-cell Western (ICW) assays in MCF-7 and T47D cell lines.
(§2) Day 3: After 16 hrs of compounds treatment, cells were fixed by 4% PFA and permeabilized with elution buffer (0.1% Triton X-100 in 1% PBS Solution). Subsequently, cells were blocked with Intercept (PBS) Blocking Buffer (Li-COR, Odyssey Blocking Buffer), and were stained with ER (1:500, Cell signaling) primary antibody for overnight at cold room.
(§3) Day 4: Remove the buffer, add IRDye 800CW Goat anti-Rabbit IgG Secondary Antibody (1:2000) and CellTag 700 Stain (1:500) in Intercept (PBS) Blocking Buffer. Finally, cell plate is placed in incubator to dry. Image and signal were captured on Odyssey® DLx Imaging System.

ER in T47D cells = ER in T47D cells (Homo sapiens (Human), UniProt P03372); assay: In-cell Western (ICW) ER degradation assay in T47D cells; format: cell-based; conditions: for DC50: ER degradation
Excerpt: as §1, §2, §3

[1] = MCF7, MCF-7, maximal ER degradation, 16 hrs treatment, read-out: MCF7 Dmax
[2] = maximal ER degradation, 16 hrs treatment, read-out: T47D Dmax
[3] = read-out: T47D Dmax, T47D, maximal ER degradation, 16 hrs treatment
[4] = MCF7, read-out: MCF7 Dmax, MCF-7, maximal ER degradation, 16 hrs treatment

Sequence of ER in MCF-7 cells (P03372 whole entry): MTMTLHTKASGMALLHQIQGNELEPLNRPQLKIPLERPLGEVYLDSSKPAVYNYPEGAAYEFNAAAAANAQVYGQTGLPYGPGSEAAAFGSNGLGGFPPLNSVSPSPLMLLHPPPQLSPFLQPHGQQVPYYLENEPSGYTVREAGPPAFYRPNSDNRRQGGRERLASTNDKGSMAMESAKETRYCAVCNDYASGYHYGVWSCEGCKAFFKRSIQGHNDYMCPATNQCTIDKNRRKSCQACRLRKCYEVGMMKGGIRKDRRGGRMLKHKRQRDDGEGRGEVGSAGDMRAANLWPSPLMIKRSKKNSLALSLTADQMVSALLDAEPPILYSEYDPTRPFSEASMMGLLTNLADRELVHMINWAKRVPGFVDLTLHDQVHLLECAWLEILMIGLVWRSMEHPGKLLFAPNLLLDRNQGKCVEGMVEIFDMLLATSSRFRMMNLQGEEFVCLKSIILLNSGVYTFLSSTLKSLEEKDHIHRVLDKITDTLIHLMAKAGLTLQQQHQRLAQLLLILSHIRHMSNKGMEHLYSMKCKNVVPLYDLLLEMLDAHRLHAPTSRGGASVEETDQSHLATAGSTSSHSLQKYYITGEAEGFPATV
Sequence of ER in T47D cells (P03372 whole entry): as above

SMILES | DC50 (ER in MCF-7 cells; 16 hrs treatment) [nM] | DC50 (ER in T47D cells; 16 hrs treatment) [nM] | Dmax (ER in MCF-7 cells; [1]) [%] | Dmax (ER in T47D cells; [2]) [%] | Dmax (ER in T47D cells; [3]) [%] | Dmax (ER in MCF-7 cells; [4]) [%]
O=C1CC[C@H](N2Cc3c(ccc4c3OC[C@H]3CN(CC5CCC6(CC5)CN(c5ccc([C@@H]7c8ccc(O)cc8CC[C@@H]7c7ccccc7)cn5)C6)CCN43)C2=O)C(=O)N1 (single isomer, unassigned) [Compound A123, (S)-3-((R)-7-((2-(5-((1S,2S)-6-hydroxy-2-phenyl-1,2,3,4-tetrahydronaphthalen-1-yl)pyridin-2-yl)-2-azaspiro[3.5]nonan-7-yl)methyl)-1-oxo-1,3,5,5a,6,7,8,9-octahydro-2H-pyrazino[1′,2′: 4,5][1,4]oxazino[2,3-e]isoindol-2-yl)piperidine-2,6-dione] | < 1 | < 1 |  |  |  | 
COc1cc(N2CCC(CN3CCC(c4ccc(N[C@@H]5CCC(=O)NC5=O)cc4F)CC3)CC2)ccc1[C@@H]1c2ccc(O)cc2CC[C@@H]1c1ccccc1 (single isomer, unassigned) [Compound A85] | < 1 | < 1 | 25 to 50 | 50 to 75 |  | 
COc1cc([C@@H]2c3ccc(O)cc3CC[C@@H]2c2ccccc2)c(F)cc1N1CCC2(CC1)CC(CN1CCN3c4ccc5c(c4OC[C@H]3C1)CN([C@H]1CCC(=O)NC1=O)C5=O)C2 (single isomer, unassigned) [Compound A103] |  | 10 to 100 |  |  | 50 to 75 | 
O=C1CC[C@H](NC(=O)c2ccc3c(n2)OC[C@H]2CN(CC4CC5(CCN(c6ccc([C@H]7c8ccc(O)cc8CC[C@H]7c7ccccc7)cn6)CC5)C4)CCN32)C(=O)N1 (single isomer, unassigned) [Compound A114] |  | > 100 |  | < 25 |  | 
COc1cc([C@H]2c3ccc(O)cc3CC[C@H]2c2ccccc2)c(F)cc1N1CCC2(CC1)CC(CN1CCN3c4ccc5c(c4OC[C@H]3C1)CN([C@H]1CCC(=O)NC1=O)C5=O)C2 (single isomer, unassigned) [Compound A102] |  | 1 to 10 |  |  | > 75 | 
COc1cc(N2CC3(CCC(CN4CCC5(CC4)COc4cc6c(cc45)CN([C@H]4CCC(=O)NC4=O)C6=O)CC3)C2)c(F)cc1[C@@H]1c2ccc(O)cc2CC[C@@H]1c1ccccc1 [Compound A167, (S)-3-(1′-((2-(2-fluoro-4-((1S, 2S)-6-hydroxy-2-phenyl-1,2,3,4-tetrahydronaphthalen-1-yl)-5-methoxyphenyl)-2-aza-spiro[3.5]nonan-7-yl)methyl)-7-oxo-5,7-dihydro-2H,6H-spiro [furo[2,3-f]isoindole-3,4′-piper-idin]-6-yl)piperidine-2,6-dione] | < 1 |  |  |  |  | 50 to 75
O=C1CC[C@H](NC(=O)c2ccc3c(n2)OC[C@H]2CN(CC4CC5(CCN(c6ccc([C@@H]7c8ccc(O)cc8CC[C@@H]7c7ccccc7)cn6)CC5)C4)CCN32)C(=O)N1 (single isomer, unassigned) [Compound A115] |  | 1 to 10 |  | > 75 |  | 
O=C1CC[C@H](N2Cc3cc4c(cc3C2=O)OC[C@@H]2CN(CC3CC5(CCN(c6ccc([C@H]7c8ccc(O)cc8CC[C@H]7c7ccccc7)cc6F)CC5)C3)CCN42)C(=O)N1 (single isomer, unassigned) [Compound A149] | 1 to 10 |  | > 75 |  |  | 
O=C1CC[C@H](N2Cc3cc4c(cc3C2=O)OCC42CCN(CC3CC4(CCN(c5ccc([C@@H]6c7ccc(O)cc7CC[C@@H]6c6ccccc6)cc5)CC4)C3)CC2)C(=O)N1 [Compound A182, (S)-3-(1′-((7-(4-((1R,2S)-6-hydroxy-2-phenyl-1,2,3,4-tetra-hydronaphthalen-1-yl)phenyl)-7-azaspiro[3.5]nonan-2-yl)-methyl)-7-oxo-5,7-dihydro-2H, 6H-spiro[furo[2,3-f]isoindole-3,4′-piperidin]-6-yl)piperidine-2,6-dione] | < 1 |  |  |  |  | 50 to 75
